This experiment has as its target BRD4 (Homo sapiens (Human), UniProt O60885). The settings on record: read-out: BRD4 IC50 (μM gmean).

What is called IC50 is the midpoint of a concentration-inhibition curve.

In the case of `COC(=O)N1c2ccc3c(nc(CCn4cccn4)n3CCN3CCN(CCO)CC3)c2CC[C@@H]1C` [Example 313], the IC50 is 1 to 1000 µM.
The figure for `COC(=O)N1c2ccc3c(nc(CCn4ccccc4=O)n3CCNCc3ccncn3)c2CC[C@@H]1C` [Example 314] is 1 to 1000 µM; for `COC(=O)N1c2ccc3c(nc(CCn4ccccc4=O)n3CCNCc3cnn(C)c3)c2CC[C@@H]1C` [Example 315] it is 1 to 1000 µM.
The figure for `COC(=O)N1c2ccc3c(nc(CCn4ccccc4=O)n3CCNCc3ccn(C)n3)c2CC[C@@H]1C` [Example 316] is 1 to 1000 µM.
The figure for `COC(=O)N1c2ccc3c(nc(CCn4ccccc4=O)n3CCNCc3ncnn3C)c2CC[C@@H]1C` [Example 317] is 1 to 1000 µM.
For `COC(=O)N1c2ccc3c(nc(CCn4ccccc4=O)n3CCNC[C@H]3CCCO3)c2CC[C@@H]1C` [Example 319], the IC50 lay within 1 to 1000 µM.
The same measure for `COC(=O)N1c2ccc3c(nc(CCn4ccccc4=O)n3CCNCC(=O)N3CCCC3)c2CC[C@@H]1C` [Example 324]: 1 to 1000 µM.
The figure for `COC(=O)N1c2ccc3c(nc(CCn4ccccc4=O)n3CCN(C)C3CCOCC3)c2CC[C@@H]1C` [Example 325] is 1 to 1000 µM; for `COC(=O)N1c2ccc3c(nc(CCn4ccccc4=O)n3CCN(C)[C@H]3CCOC3)c2CC[C@@H]1C` [Example 326] it is 1 to 1000 µM; for `COC(=O)N1c2ccc3c(nc(CCn4ccccc4=O)n3CCN3CC[C@H](C(N)=O)C3)c2CC[C@@H]1C` [Example 327] it is 1 to 1000 µM.
The figure for `COC(=O)N1c2ccc3c(nc(CCn4cccn4)n3CC(=O)N3CC[C@H](NC(C)=O)C3)c2CC[C@@H]1C` [Example 335, methyl (S)-2-(2-(1H-pyrazol-1-yl)ethyl)-3-(2-((S)-3-acetamidopyrrolidin-1-yl)-2-oxoethyl)-7-methyl-3,7,8,9-tetrahydro-6H-imidazo[4,5-f]quinoline-6-carboxylate] is 1 to 1000 µM; for `COC(=O)N1c2ccc3c(nc(CCn4cccn4)n3CC(=O)NCc3ccncn3)c2CC[C@@H]1C` [Example 336] it is 1 to 1000 µM.
Turning to `COC(=O)N1c2ccc3c(nc(CCn4cccn4)n3CC(=O)NCc3ncccn3)c2CC[C@@H]1C` [Example 337], the IC50 lay in the range of 1 to 1000 µM.
The same measure for `COC(=O)N1c2ccc3c(nc(CCn4cccn4)n3CC(=O)NCCc3ccccn3)c2CC[C@@H]1C` [Example 338]: 1 to 1000 µM.
The same measure for `COC(=O)N1c2ccc3c(nc(CCn4cccn4)n3CC(=O)NCc3ccnc(O)c3)c2CC[C@@H]1C` [Example 339]: 1 to 1000 µM; for `COC(=O)N1c2ccc3c(nc(CCn4cccn4)n3CC(=O)NCc3ncco3)c2CC[C@@H]1C` [Example 340]: 1 to 1000 µM; for `COC(=O)N1c2ccc3c(nc(CCn4cccn4)n3CC(=O)NCc3cnco3)c2CC[C@@H]1C` [Example 342]: 1 to 1000 µM.
The figure for `COC(=O)N1c2ccc3c(nc(CCn4cccn4)n3CC(=O)NCc3nnc(C)n3C)c2CC[C@@H]1C` [Example 343] is 1 to 1000 µM.
`COC(=O)N1c2ccc3c(nc(CCn4cccn4)n3CC(=O)NCc3cnn(C)c3)c2CC[C@@H]1C` [Example 344]: the IC50 lay in the range of 1 to 1000 µM.
Regarding `COC(=O)N1c2ccc3c(nc(CCn4cccn4)n3CC(=O)NCc3ccn(C)n3)c2CC[C@@H]1C` [Example 345], the IC50 lay in the range of 1 to 1000 µM.
Regarding `COC(=O)N1c2ccc3c(nc(CCn4cccn4)n3CC(=O)NCc3cccnc3)c2CC[C@@H]1C` [Example 346], the IC50 was 1 to 1000 µM.
The same measure for `COC(=O)N1c2ccc3c(nc(CCn4cccn4)n3CC(=O)NC[C@H]3CCCO3)c2CC[C@@H]1C` [Example 347]: 1 to 1000 µM; for `COC(=O)N1c2ccc3c(nc(CCn4cccn4)n3CC(=O)N[C@H]3CC[C@H](CO)CC3)c2CC[C@@H]1C` [Example 348]: 1 to 1000 µM.
The same measure for `COC(=O)N1c2ccc3c(nc(CCn4cccn4)n3CC(=O)N[C@H](C)CO)c2CC[C@@H]1C` [Example 349]: 1 to 1000 µM.
The figure for `COC(=O)N1c2ccc3c(nc(CCn4cccn4)n3CC(=O)N(C)CCO)c2CC[C@@H]1C` [Example 350] is 1 to 1000 µM.

Values taken from patent US11292791B2 (priority 2017, dated 2022).
